This is an account of results in US7468393B2, “Diarylsulfones as 5-HT2A antagonists” (Merck Sharp & Dohme Ltd., priority 2004, dated 2008).

As a reminder, the melting point is the temperature, or range, at which the solid turns liquid. Regarding `C[C@H](O)c1ccccc1S(=O)(=O)c1ccc(/C=C/c2ccc(F)cc2)cc1` [Example 135, (1S)-1-[2-({4-[(E)-2-(4-fluorophenyl)vinyl]phenyl}sulfonyl)phenyl]ethanol], the melting point was 75 °C.
